The text below walks through data of patent US20040097594A1 (priority 1998, published 2004).

As a reminder, the Ki is the equilibrium dissociation constant of an inhibitor or competing ligand from its target. By IC50 is commonly meant the concentration that inhibits the measured activity by half.

One test deals with HIV-1 protease (Human immunodeficiency virus type 1 group M subtype B, UniProt P04585). Description: biochemical. Conditions: HIV-1 protease; upper line of each compound's entry; read-out: Ki (enzyme).
The subject of the next test is HIV-1 (strain IIIB). Nature of the test: microbe, parasite or virus in culture. It is filed as cell-based. Conditions: lower line of each compound's entry, read-out: IC50 (MT-4 cells).
The mark [1] stands for this setting: MT4 cells infected with HIV-1 strain IIIB, 5 days.

Read-outs that look alike come from different tables or passages of the source. Where only a bound is given, the exact number is not on record here.

Regarding `CC(C)(C)OC(=O)CNc1cccc(S(=O)(=O)N(CC(O)C(Cc2ccccc2)NC(=O)OC2COC3OCCC23)OC2CCCC2)c1` (mixture of isomers) [Compound 30, tert-butyl 2-(3-[[(2R,3S)-3-([(3R,3aS,6aR)hexahydrofuro[2,3-b]furan-3-yloxy]carbonylamino)-2-hydroxy-4-phenylbutyl](cyclopentyloxy)amino]sulfonylanilino)acetate and tert-butyl 2-(3-[[(2R,3S)-3-([(3S,3aR,6aS)hexahydrofuro[2,3-b]furan-3-yloxy]carbonylamino)-2-hydroxy-4-phenylbutyl](cyclopentyloxy)amino]sulfonylanilino)acetate], at HIV-1 protease, the Ki is below 1 nM. The IC50 in the test with HIV-1 (strain IIIB) (Human immunodeficiency virus 1, 120 h, MT4 cells infected with HIV-1 strain IIIB, 5 days) lay in the range of 100 to 500 nM.

In the case of `COc1cc(C(=O)Nc2nc3cc(S(=O)(=O)N(C[C@@H](O)[C@H](Cc4ccccc4)NC(=O)OC(C)(C)C)OC4CCCC4)ccc3[nH]2)cc(OC)c1OC` [Compound 12, Tert-butyl N-(1S,2R)-1-benzyl-3-[(cyclopentyloxy)(2-[(3,4,5-trimethoxyphenyl-carbonyl)amino]-1H-benzimidazol-5-ylsulfonyl)amino]-2-hydroxypropylcarbamate], the Ki on HIV-1 protease is above 10 nM.

For the molecule `COC(=O)CC(=O)Nc1nc2cc(S(=O)(=O)N(C[C@@H](O)[C@H](Cc3ccccc3)NC(=O)OC(C)(C)C)OC3CCCC3)ccc2[nH]1` [Compound 13, Tert-butyl N-(1S,2R)-1-benzyl-3-[(cyclopentyloxy)(2-[(methyl3-oxopropionate)amino]-1H-benzimidazol-5-ylsulfonyl)amino]-2-hydroxypropylcarbamate], the Ki on HIV-1 protease was in the range of 10 to 100 nM.

Take `O=C(N[C@@H](Cc1ccccc1)[C@H](O)CN(OC1CCCC1)S(=O)(=O)c1ccc(O)cc1)O[C@H]1CO[C@H]2OCC[C@H]21` [Compound 41, (3R,3aS,6aR)hexahydrofuro[2,3-b]furan-3-yl N-((1S,2R)-1-benzyl-3-(cyclopentyloxy)[(4-hydroxyphenyl)sulfonyl]amino-2-hydroxypropyl)carbamate]: in the test on HIV-1 (strain IIIB) ([…]), the IC50 was at most 100 nM.

Regarding `O=C(N[C@@H](Cc1ccccc1)[C@H](O)CN(OC1CCCC1)S(=O)(=O)c1ccc(OCCO)cc1)O[C@H]1CO[C@H]2OCC[C@H]21` [Compound 42, (3R,3aS,6aR)hexahydrofuro[2,3-b]furan-3-yl N-[(1S,2R)-1-benzyl-3-((cyclopentyloxy)[4-(2-hydroxyethoxy)phenyl]sulfonylamino)-2-hydroxypropyl]carbamate], the Ki on HIV-1 protease was below 1 nM.

For `CN(C)c1cccc(S(=O)(=O)N(CC(O)C(Cc2ccccc2)NC(=O)OC2COC3OCCC23)OC2CCCC2)c1` [Compound 43, (3R,3aS,6aR)hexahydrofuro[2,3-b]furan-3-yl N-(1S,2R)-3-[[(3-N,N-dimethylaminophenyl)sulfonyl)(cyclopentyloxy)amino)-1-benzyl-2-hydroxypropylcarbamate], the Ki at HIV-1 protease was below 1 nM.

`CC(C)ON(C[C@@H](O)[C@H](Cc1ccccc1)NC(=O)O[C@H]1CCOC1)S(=O)(=O)c1ccc2[nH]cnc2c1` [Compound 63, (3S)tetrahydro-3-furanyl N-(1S,2R)-3-[(1H-1,3-benzimidazol-5-ylsulfonyl)(isopropoxy)amino]-1-benzyl-2-hydroxypropylcarbamate]: on HIV-1 protease, the inhibition constant (Ki) lay in the range of 1 to 10 nM.

As for `CC(=O)NCCNc1cccc(S(=O)(=O)N(CC(O)C(Cc2ccccc2)NC(=O)OC2COC3OCCC23)OC2CCCC2)c1` [Compound 84, (3R,3aS,6aR)hexahydrofuro[2,3-b]furan-3-yl N-(1S,2R)-3-[[(3-[2-(acetylamino)ethyl]aminophenyl)sulfonyl](cyclopentyloxy)amino]-1-benzyl-2-hydroxypropylcarbamate and (3S,3aR,6aS)hexahydrofuro[2,3-b]furan-3-yl N-(1S,2R)-3-[[(3-[2-(acetylamino)ethyl]aminophenyl)sulfonyl](cyclopentyloxy)amino]-1-benzyl-2-hydroxypropylcarbamate], on HIV-1 protease, the inhibition constant Ki is below 1 nM.

For `NC(=O)CNc1cccc(S(=O)(=O)N(CC(O)C(Cc2ccccc2)NC(=O)OC2COC3OCCC23)OC2CCCC2)c1` [Compound 85, (3R,3aS,6aR)hexahydrofuro[2,3-b]furan-3-yl N-(1S,2R)-3-[(3-[(2-amino-2-oxoethyl)amino]phenylsulfonyl)(cyclopentyloxy)amino]-1-benzyl-2-hydroxypropylcarbamate and (3S,3aR,6aS)hexahydrofuro[2,3-b]furan-3-yl N-(1S,2R)-3-[(3[(2-amino-2-oxoethyl)amino]phenylsulfonyl) (cyclopentyloxy)amino]-1-benzyl-2-hydroxypropylcarbamate], the Ki on HIV-1 protease is below 1 nM.

Consider `O=C(NC(Cc1ccccc1)C(O)CN(OC1CCCC1)S(=O)(=O)c1ccc2[nH]nnc2c1)OC1COC2OCCC12` [Compound 91, (3aS,6aR)Hexahydrofuro[2,3-b]furan-3-yl N-(1S,2R)-1-benzyl-3-[(cyclopentyloxy)(benzotriazole-5-ylsulfonyl)amino]-2-hydroxypropylcarbamate], for which, on HIV-1 protease, the Ki is below 1 nM.

For `O=C(N[C@@H](Cc1ccccc1)[C@H](O)CN(OC1CCCC1)S(=O)(=O)c1ccc2[nH]nnc2c1)OC1COCOC1` [Compound 92, 1,3-Dioxan-5-yl N-(1S,2R)-1-benzyl-3-[(cyclopentyloxy)(benzotriazole-5-ylsulfonyl)amino]-2-hydroxypropylcarbamate], the Ki on HIV-1 protease is below 1 nM.

As for `O=C(N[C@@H](Cc1ccccc1)[C@H](O)CN(OC1CCCC1)S(=O)(=O)c1ccc(OCCN2CCOCC2)cc1)O[C@H]1CO[C@H]2OCC[C@H]21` [Compound 98, (3R,3aS,6aR)hexahydrofuro[2,3-b]furan-3-yl N-[(1S,2R)-1-benzyl-3-((cyclopentyloxy)[4-(2-morpholinoethoxy)phenyl]sulfonylamino)-2-hydroxypropyl]carbamate], the Ki on HIV-1 protease is below 1 nM.

With `O=C(N[C@@H](Cc1ccccc1)[C@H](O)CN(OC1CCCC1)S(=O)(=O)c1cccc(OCCN2CCOCC2)c1)O[C@H]1CO[C@H]2OCC[C@H]21` [Compound 99, (3R,3aS,6aR)hexahydrofuro[2,3-b]furan-3-yl N-[(1S, 2R)-1-benzyl-3-((cyclopentyloxy)[3-(2-morpholinoethoxy)phenyl]sulfonylamino)-2-hydroxypropyl]carbamate], on HIV-1 protease, the Ki was below 1 nM.

As to `CS(=O)(=O)Nc1nc2cc(S(=O)(=O)N(C[C@@H](O)[C@H](Cc3ccccc3)NC(=O)OC3COCOC3)OC3CCCC3)ccc2[nH]1` [Compound 132, 1,3-Dioxan-5-yl-N-((1S,2R)-1-benzyl-3-(cyclopentyloxy)(2-[(methylsulfonyl)amino)benzimidazol-5-ylsulfonyl)amino-2-hydroxypropyl)carbamate], in the test on HIV-1 (strain IIIB) (setting [1]), the IC50 was at most 100 nM.

Consider `COc1ccc(S(=O)(=O)N(C[C@@H](O)[C@H](Cc2ccccc2)NC(=O)OC(C)(C)C)OC(C)CCC#N)cc1` (some centres unmarked) [Compound 152, tert-butyl 1-benzyl-3-{(3-cyano-1-methylpropoxy)[(4-methoxyphenyl)sulfonyl]amino}-2-hydroxypropylcarbamate], for which the IC50 with HIV-1 (strain IIIB) (setting [1]) lay in the range of 500 to 1000 nM.

Turning to `Nc1ccc(S(=O)(=O)N(CC(O)C(Cc2ccccc2)NC(=O)OC2COC3OCCC23)OC2CCCC2)cc1` [Example 172, (3S,3aR,6aS)hexahydrofuro[2,3-b]furan-3-yl N-(1S,2R)-3-[[(4-aminophenyl)sulfonyl](cyclopentyloxy)amino]-1-benzyl-2-hydroxypropyl carbamate], in the test with HIV-1 (strain IIIB) (setting [1]), the IC50 was at most 100 nM.
